# Reference: patent US20250313533A1, “QUINOLINE CARBOXYLIC ACID ESTER COMPOUND AND PREPARATION METHOD AND USE THEREOF” (priority 2019, published 2025)
# Several values for one entry are separate records, joined by “and”; a condition that tells them apart may be missing. Equal entries are not always repeated. Where two headings read alike, the source gives them in different places.
# How the values were obtained:
# [1] = system: pathogenic bacteria causing bacterial angular leaf spot in cucumbers; assay: In vitro bactericidal activity, bacterial angular leaf spot in cucumbers; assay type: cell-based, pseudomonas; details: for inhibition at 1 ppm / inhibition at 5 ppm: read-out: inhibitory rate
# [2] = system: pathogenic bacteria causing bacterial wilt in tobacco; assay: whole plant or invertebrate; assay type: cell-based, ralstonia; details: for inhibition at 1 ppm / inhibition at 5 ppm: read-out: inhibitory rate; for inhibitory rate: in vitro
# [3] = system: pathogenic bacteria causing black shank in potatoes; assay: In vitro bactericidal activity, black shank in potatoes; assay type: cell-based; details: for inhibition at 1 ppm / inhibition at 5 ppm: read-out: inhibitory rate
# [4] = system: pathogenic bacteria causing stem rot in sweet potatoes; assay: In vitro bactericidal activity, stem rot in sweet potatoes; assay type: cell-based, dikia; details: for inhibition at 1 ppm / inhibition at 5 ppm: read-out: inhibitory rate
# [5] = system: pathogenic bacteria causing bacterial blight in rice; assay: whole plant or invertebrate; assay type: cell-based, xanthomonas; details: for inhibition at 1 ppm / inhibition at 5 ppm: read-out: inhibitory rate; for inhibitory rate: in vitro
# [6] = system: pathogenic bacteria causing fruit blotch in watermelons; assay: In vitro bactericidal activity, fruit blotch in watermelons; assay type: cell-based, acidovorax; details: for inhibition at 1 ppm / inhibition at 5 ppm: read-out: inhibitory rate
# [7] = system: pathogenic bacteria causing black rot in Chinese cabbages; assay: In vitro bactericidal activity, black rot in Chinese cabbages; assay type: cell-based, xanthomonas; details: for inhibition at 1 ppm / inhibition at 5 ppm: Xanthomonas, read-out: inhibitory rate
# [8] = system: pathogenic bacteria causing bacterial wilt in cassava; assay: organism not typed; assay type: cell-based; details: for inhibition at 1 ppm / inhibition at 5 ppm: read-out: inhibitory rate; for inhibitory rate: in vitro
# [9] = system: pathogenic bacteria causing fire blight in pears; assay: In vitro bactericidal activity, fire blight in pears; assay type: cell-based, erwinia; details: for inhibition at 1 ppm / inhibition at 5 ppm: Erwinia, read-out: inhibitory rate
# black shank in potatoes = assay: Living crops in vivo protective activity, potatoes (root irrigation); details: for pest or weed control at 5 ppm / pest or weed control at 10 ppm: Solanum tuberosum, read-out: efficacy against black shank in potatoes
# Method: Root irrigation was carried out on the potatoes for tests according to the designed concentration of the agents. The dosage for each plant was 200 mL and was kept consistent (also for the control). The black shank bacteria were inoculated on the second day after the application. The results were investigated according to the disease condition.
# [10] = system: indoor potted cucumber seedlings; assay: Effect of improving growth and development of crops; assay type: in vivo; design: Rate of growth rate increase (%): concentration or dose not given beside the values; details: versus blank control; for Rate of chlorophyll content increase (%) / Rate of leaf area increase (%): 14 days after application; for Rate of growth rate increase (%): plant height 14 days after application; for Rate of leaf area increase (%): second leaf
# How it was run: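 Before treatment, plant height and the second leaf's length and width are recorded. After 14 days these are repeated, chlorophyll is read by meter, and percentage increases in growth rate, leaf area and chlorophyll are computed.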
# cucumber seedlings = assay: Safety for plant growth after application; assay type: in vivo; details: dosage 200 ppm
# How it was run: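 Read-outs are chlorophyll content, leaf area and the rate of increase in plant height, all measured on cucumber seedlings kept in pots indoors after application.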
# [11] = system: soft rot in Chinese cabbages; assay: Field test for controlling soft rot in Chinese cabbages; assay type: in vivo, Chinese cabbage; details: 7 days after the last application
# Method: (§1) In October 2019, tests were carried out in fields of Chinese cabbage, wild cabbage and lettuce in Tai'an, Shandong. The doses of the compounds 152 and 282 of the present disclosure (both prepared as dispersible granules with a mass fraction of 10%) used were 16.87 ga.i./hm^2 and 33.75 ga.i./hm^2, and the control agents used were 3% (by weight) wettable powder of zhongshengmycin and 33.5% (by weight) aqueous suspension of oxine-copper (both were commercially available). The dose of zhongshengmycin was 67.5 ga.i./hm^2, and the dose of oxine-copper was 337.5 ga.i./hm^2. Test and control agents were arranged in randomized blocks. Plot area was 15 m^2. Treatment was repeated 3 times. The route of application was spraying on stem and leaves. The application was performed 2 times in total at an interval of 7 days, and the efficacy investigation was performed 7 days after the last application. During the investigation, sampling was carried out at 5 points in each plot. Disease conditions of soft rot in Chinese cabbages, soft rot in lettuces and soft rot in wild cabbages were recorded according to the relevant technical standard of Pesticide Guidelines for the Field Efficacy Trials GB/T17980.114-2004, and the incidence rate of plants was calculated to further evaluate the control effect.
# [12] = system: soft rot in wild cabbages; assay: Field test for controlling soft rot in wild cabbages; assay type: in vivo, wild cabbage; details: 7 days after the last application
# Method: as §1
# soft rot in lettuces = assay: Field test for controlling soft rot in lettuces; assay type: in vivo, lettuce; details: 7 days after the last application
# Method: as §1
# [13] = system: bacterial wilt in tobacco; assay: whole plant or invertebrate; details: Nicotiana tabacum, read-out: efficacy against bacterial wilt in tobacco
# [14] = system: stem rot in sweet potatoes; assay: whole plant or invertebrate; details: read-out: efficacy against stem rot in sweet potatoes
# bacterial blight in rice = assay: whole plant or invertebrate; details: Oryza sativa, read-out: efficacy against bacterial blight in rice
# [15] = system: fruit blotch in watermelons; assay: whole plant or invertebrate; details: read-out: efficacy against fruit blotch in watermelons
# [16] = system: soft rot in Chinese cabbages; assay: whole plant or invertebrate; details: 48 h, read-out: efficacy against soft rot in Chinese cabbages
# [17] = system: bacterial wilt in tobacco; details: seed soaking
# [18] = system: stem rot in sweet potatoes
# [19] = system: fruit blotch in watermelons
# [20] = system: soft rot in Chinese cabbages
# [21] = dose 16.87 g a.i./hm^2, 2 sprays
# [22] = dose 33.75 g a.i./hm^2, 2 sprays
# [23] = dose 67.5 g a.i./hm^2, 2 sprays
# [24] = dose 337.5 g a.i./hm^2, 2 sprays
compound,measurement,setting,value
"COCCOC(=O)c1cn(C2CC2)c2cc(Cl)c(F)cc2c1=O [Compound 152, 2-methoxyethyl 7-chloro-1-cyclopropyl-6-fluoro-4-oxo-1,4-dihydroquinoline-3-carboxylate]",inhibition at 1 ppm,[1]; dosage 1 ppm,≥ 90%
same,inhibition at 5 ppm,[1]; dosage 5 ppm,≥ 90%
same,inhibition at 1 ppm,[2],≥ 90%
same,inhibition at 5 ppm,[2],≥ 90%
same,inhibition at 1 ppm,[3]; dosage 1 ppm,≥ 90%
same,inhibition at 5 ppm,[3]; dosage 5 ppm,≥ 90%
same,inhibition at 1 ppm,[4]; dosage 1 ppm,≥ 90%
same,inhibition at 5 ppm,[4]; dosage 5 ppm,≥ 90%
same,inhibition at 1 ppm,[5],≥ 90%
same,inhibition at 5 ppm,[5],≥ 90%
same,inhibition at 1 ppm,[6]; dosage 1 ppm,≥ 90%
same,inhibition at 5 ppm,[6]; dosage 5 ppm,≥ 90%
same,inhibition at 1 ppm,[7]; dosage 1 ppm,≥ 90%
same,inhibition at 5 ppm,[7]; dosage 5 ppm,≥ 90%
same,inhibition at 1 ppm,[8],≥ 90%
same,inhibition at 5 ppm,[8],≥ 90%
same,inhibition at 1 ppm,[9]; dosage 1 ppm,≥ 90%
same,inhibition at 5 ppm,[9]; dosage 5 ppm,≥ 90%
same,pest or weed control at 5 ppm,black shank in potatoes; dosage 5 ppm,≥ 90%
same,pest or weed control at 10 ppm,black shank in potatoes; dosage 10 ppm,≥ 90%
same,Rate of chlorophyll content increase (%),[10],17%
same,Rate of growth rate increase (%),[10],15%
same,Rate of leaf area increase (%),[10],16%
same,"safety for plant growth (discoloration, necrosis, wilt, malformation)",cucumber seedlings,safe for plant growth
same,Control effect (%),[11]; [21],86%
same,Control effect (%),[11]; [22],96%
same,Control effect (%),[12]; [21],82%
same,Control effect (%),[12]; [22],93%
same,Control effect (%),soft rot in lettuces; [21],79%
same,Control effect (%),soft rot in lettuces; [22],90%
same,pest or weed control at 5 ppm,[13],≥ 90%
same,pest or weed control at 10 ppm,[13],≥ 90%
same,pest or weed control at 5 ppm,[14],≥ 90%
same,pest or weed control at 10 ppm,[14],≥ 90%
same,pest or weed control at 5 ppm,bacterial blight in rice,≥ 90%
same,pest or weed control at 10 ppm,bacterial blight in rice,≥ 90%
same,pest or weed control at 5 ppm,[15],≥ 90%
same,pest or weed control at 10 ppm,[15],≥ 90%
same,pest or weed control at 5 ppm,[16],≥ 90%
same,pest or weed control at 10 ppm,[16],≥ 90%
"CCOc1cc2c(cc1F)c(=O)c(C(=O)OCCOC)cn2C1CC1 [Compound 282, 2-methoxyethyl 1-cyclopropyl-6-fluoro-4-oxo-7-ethoxy-1,4-dihydroquinoline-3-carboxylate]",inhibition at 1 ppm,[1]; dosage 1 ppm,≥ 90%
same,inhibition at 5 ppm,[1]; dosage 5 ppm,≥ 90%
same,inhibition at 1 ppm,[2],≥ 90%
same,inhibition at 5 ppm,[2],≥ 90%
same,inhibition at 1 ppm,[3]; dosage 1 ppm,≥ 90%
same,inhibition at 5 ppm,[3]; dosage 5 ppm,≥ 90%
same,inhibition at 1 ppm,[4]; dosage 1 ppm,≥ 90%
same,inhibition at 5 ppm,[4]; dosage 5 ppm,≥ 90%
same,inhibition at 1 ppm,[5],≥ 90%
same,inhibition at 5 ppm,[5],≥ 90%
same,inhibition at 1 ppm,[6]; dosage 1 ppm,≥ 90%
same,inhibition at 5 ppm,[6]; dosage 5 ppm,≥ 90%
same,inhibition at 1 ppm,[7]; dosage 1 ppm,≥ 90%
same,inhibition at 5 ppm,[7]; dosage 5 ppm,≥ 90%
same,inhibition at 1 ppm,[8],≥ 90%
same,inhibition at 5 ppm,[8],≥ 90%
same,inhibition at 1 ppm,[9]; dosage 1 ppm,≥ 90%
same,inhibition at 5 ppm,[9]; dosage 5 ppm,≥ 90%
same,pest or weed control at 5 ppm,black shank in potatoes; dosage 5 ppm,≥ 90%
same,pest or weed control at 10 ppm,black shank in potatoes; dosage 10 ppm,≥ 90%
same,Rate of chlorophyll content increase (%),[10],16%
same,Rate of growth rate increase (%),[10],12%
same,Rate of leaf area increase (%),[10],16%
same,"safety for plant growth (discoloration, necrosis, wilt, malformation)",cucumber seedlings,safe for plant growth
same,Control effect (%),[11]; [21],82%
same,Control effect (%),[11]; [22],90%
same,Control effect (%),[12]; [21],80%
same,Control effect (%),[12]; [22],87%
same,Control effect (%),soft rot in lettuces; [21],73%
same,Control effect (%),soft rot in lettuces; [22],85%
same,pest or weed control at 5 ppm,[13],≥ 90%
same,pest or weed control at 10 ppm,[13],≥ 90%
same,pest or weed control at 5 ppm,[14],≥ 90%
same,pest or weed control at 10 ppm,[14],≥ 90%
same,pest or weed control at 5 ppm,bacterial blight in rice,≥ 90%
same,pest or weed control at 10 ppm,bacterial blight in rice,≥ 90%
same,pest or weed control at 5 ppm,[15],≥ 90%
same,pest or weed control at 10 ppm,[15],≥ 90%
same,pest or weed control at 5 ppm,[16],≥ 90%
same,pest or weed control at 10 ppm,[16],≥ 90%
zhongshengmycin [reference compound],inhibitory rate,[1]; dosage 1 ppm,21%
same,inhibitory rate,[1]; dosage 5 ppm,48%
same,inhibitory rate,[2]; dosage 1 ppm,28%
same,inhibitory rate,[2]; dosage 5 ppm,51%
same,inhibitory rate,[3]; dosage 1 ppm,38%
same,inhibitory rate,[3]; dosage 5 ppm,55%
same,inhibitory rate,[4]; dosage 1 ppm,25%
same,inhibitory rate,[4]; dosage 5 ppm,46%
same,inhibitory rate,[5]; dosage 1 ppm,30%
same,inhibitory rate,[5]; dosage 5 ppm,48%
same,inhibitory rate,[6]; dosage 1 ppm,29%
same,inhibitory rate,[6]; dosage 5 ppm,52%
same,inhibitory rate,[7]; dosage 1 ppm,19%
same,inhibitory rate,[7]; dosage 5 ppm,46%
same,inhibitory rate,[8]; dosage 1 ppm,32%
same,inhibitory rate,[8]; dosage 5 ppm,51%
same,inhibitory rate,[9]; dosage 1 ppm,23%
same,inhibitory rate,[9]; dosage 5 ppm,43%
same,efficacy against black shank in potatoes,black shank in potatoes; dosage 5 ppm,17%
same,efficacy against black shank in potatoes,black shank in potatoes; dosage 10 ppm,25%
same,Control effect (%),[11]; [23],72%
same,Control effect (%),[12]; [23],69%
same,Control effect (%),soft rot in lettuces; [23],65%
same,efficacy against bacterial wilt in tobacco,[17]; dosage 5 ppm,24%
same,efficacy against bacterial wilt in tobacco,[17]; dosage 10 ppm,35%
same,efficacy against stem rot in sweet potatoes,"[18]; dosage 5 ppm, seed soaking",23%
same,efficacy against stem rot in sweet potatoes,"[18]; dosage 10 ppm, seed soaking",38%
same,efficacy against fruit blotch in watermelons,"[19]; dosage 5 ppm, seed soaking",19%
same,efficacy against fruit blotch in watermelons,"[19]; dosage 10 ppm, seed soaking",33%
same,efficacy against soft rot in Chinese cabbages,"[20]; dosage 5 ppm, sprayed cut leaves, 48 h incubation",23%
same,efficacy against soft rot in Chinese cabbages,"[20]; dosage 10 ppm, sprayed cut leaves, 48 h incubation",39%
"[Cu+2].[O-]c1cccc2cccnc12.[O-]c1cccc2cccnc12 [oxine-copper, reference compound]",inhibitory rate,[1]; dosage 1 ppm,0%
same,inhibitory rate,[1]; dosage 5 ppm,2%
same,inhibitory rate,[2]; dosage 1 ppm,0%
same,inhibitory rate,[2]; dosage 5 ppm,5%
same,inhibitory rate,[3]; dosage 1 ppm,0%
same,inhibitory rate,[3]; dosage 5 ppm,3%
same,inhibitory rate,[4]; dosage 1 ppm,2%
same,inhibitory rate,[4]; dosage 5 ppm,7%
same,inhibitory rate,[5]; dosage 1 ppm,9%
same,inhibitory rate,[5]; dosage 5 ppm,16%
same,inhibitory rate,[6]; dosage 1 ppm,0%
same,inhibitory rate,[6]; dosage 5 ppm,3%
same,inhibitory rate,[7]; dosage 1 ppm,0%
same,inhibitory rate,[7]; dosage 5 ppm,5%
same,inhibitory rate,[8]; dosage 1 ppm,7%
same,inhibitory rate,[8]; dosage 5 ppm,15%
same,inhibitory rate,[9]; dosage 1 ppm,0%
same,inhibitory rate,[9]; dosage 5 ppm,3%
same,efficacy against black shank in potatoes,black shank in potatoes; dosage 5 ppm,11%
same,efficacy against black shank in potatoes,black shank in potatoes; dosage 10 ppm,22%
same,Control effect (%),[11]; [24],13%
same,Control effect (%),[12]; [24],11%
same,Control effect (%),soft rot in lettuces; [24],9%
same,efficacy against bacterial wilt in tobacco,[17]; dosage 5 ppm,5%
same,efficacy against bacterial wilt in tobacco,[17]; dosage 10 ppm,11%
same,efficacy against stem rot in sweet potatoes,[18]; in vivo,20% and 13%
same,efficacy against fruit blotch in watermelons,[19]; in vivo,22% and 15%
same,efficacy against soft rot in Chinese cabbages,[20]; in vivo,16% and 6%
